Measurements reported in patent US11267802B2 (BEBETTER MED INC., priority 2015, dated 2022).
pIC50: −log10 of the molar value.

Assays:
H358 = experiment: Inhibition assay on tumor cell proliferation (CellTiter-Glo), H358; format: cell-based, Human; conditions: Homo sapiens, NCI-H358; H358 (wild-type EGFR), 72 hours, 10% bovine serum
Protocol: By using a CellTiter-Glo luminescence cell viability test kit (Promega, # G7572), the content of adenosine triphosphate (ATP) was determined to assess the cell viability.
Human colon cancer cell line LOVO and human non-small-cell lung cancer H358 express wild-type EGFR. Human non-small-cell lung cancer cell line HCC827 carries deletion mutation in exon 19 (ex19del). Those cell lines are purchased from Shanghai Fudan IBS Cell Resource Center and American Tissue Culture Collection (ATCC).
The assay procedure is as follows. The cells in a cell culture plate were digested with a pancreatic enzyme, re-suspended in a DPBS culture medium, and had the cell density counted by Scepter automated cytometer (Millipore # PHCC00000). The cells were diluted to a solution of 44,000 cells per ml. The cell solution with adjusted density was added to the cell assay plate at 90 microliters per well. The plate was placed in an incubator with 5% CO2 at 37° C. for 24 hours of incubation, and then added with different concentrations of subject compounds. The cells were incubated for 72 hours with the compounds in presence of 10% bovine serum. The content of ATP was determined by a CellTiter-Glo® Luminescent Cell Viability Assay kit (see the manufacturer's instruction for details) to evaluate cell-growth inhibition.
Briefly, 30 μl of CellTiter-Glo® reagent was added to each well, and then shaken for 10 minutes to induce cell lysis. The fluorescent signal was detected and recorded by Fluoroskan Ascent FL (Thermo). The max signal value was obtained from the cells treated by dimethyl sulfoxide for 72 hours. The min signal value was obtained from the medium alone (the number of the cells was 0). Inhibitory rate %=(max signal value−compound signal value)/(max signal value−min signal value)×100. The data was processed by GraphPad Prism V5.0 software (GraphPad Software, San Diego, Calif.). Sigmoidal dose-response curve fitting was performed to calculate the IC50 value.

EGFR T790M/L858R = biological target: T1, EGFR T790M/L858R (Homo sapiens, UniProt P00533, L858R/T790M); experiment: Mutant EGFR T790M/L858R activity inhibition assay (Caliper mobility shift); format: biochemical; conditions: read-out: enzyme activity inhibition (IC50) EGFR T790M/L858R
T1 construct: purchased Invitrogen PR8911A
T1 sequence (P00533 25-1210 T790M/L858R): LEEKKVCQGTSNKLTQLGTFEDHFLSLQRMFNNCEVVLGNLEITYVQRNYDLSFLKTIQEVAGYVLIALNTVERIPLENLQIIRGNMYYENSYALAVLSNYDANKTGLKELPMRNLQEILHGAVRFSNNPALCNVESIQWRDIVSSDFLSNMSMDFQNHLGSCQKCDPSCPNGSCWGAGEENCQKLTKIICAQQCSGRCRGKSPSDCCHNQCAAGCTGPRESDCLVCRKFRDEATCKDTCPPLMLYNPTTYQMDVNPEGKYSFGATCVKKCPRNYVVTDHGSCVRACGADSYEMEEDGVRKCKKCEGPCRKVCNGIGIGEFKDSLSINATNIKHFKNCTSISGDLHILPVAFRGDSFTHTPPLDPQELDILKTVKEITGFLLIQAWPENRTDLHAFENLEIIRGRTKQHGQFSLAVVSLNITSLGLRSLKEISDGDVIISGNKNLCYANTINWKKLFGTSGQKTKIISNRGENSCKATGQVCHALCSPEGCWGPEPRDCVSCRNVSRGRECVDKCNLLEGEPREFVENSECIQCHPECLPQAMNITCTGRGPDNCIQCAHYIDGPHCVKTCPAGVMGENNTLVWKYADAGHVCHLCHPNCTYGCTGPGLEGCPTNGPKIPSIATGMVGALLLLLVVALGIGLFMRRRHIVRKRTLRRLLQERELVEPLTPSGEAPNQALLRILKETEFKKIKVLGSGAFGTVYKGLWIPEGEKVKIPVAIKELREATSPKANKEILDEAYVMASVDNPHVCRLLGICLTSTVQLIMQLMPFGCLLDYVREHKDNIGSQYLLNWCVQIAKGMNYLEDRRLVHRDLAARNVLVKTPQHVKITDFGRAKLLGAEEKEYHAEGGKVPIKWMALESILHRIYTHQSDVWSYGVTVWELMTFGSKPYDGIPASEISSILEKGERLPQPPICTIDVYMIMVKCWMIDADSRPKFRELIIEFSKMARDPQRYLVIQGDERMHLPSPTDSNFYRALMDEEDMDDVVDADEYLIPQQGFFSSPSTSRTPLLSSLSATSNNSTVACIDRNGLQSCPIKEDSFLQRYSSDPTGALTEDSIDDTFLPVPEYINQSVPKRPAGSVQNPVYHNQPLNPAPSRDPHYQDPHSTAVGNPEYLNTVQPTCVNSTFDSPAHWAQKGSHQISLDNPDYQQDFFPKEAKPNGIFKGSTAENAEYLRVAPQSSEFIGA
Protocol: The assay procedure is as follows. […] 5 μl of the compound dissolved in 10% DMSO at a concentration of 5-fold of the final reaction concentration was added to a 384 well plate. 5 μl of 10% DMSO was used in a no-compound control well, while 5 μl of a kinase buffer was used in a no-enzyme activity control well. […] The conversion rate was read on Caliper EZ Reader II (Caliper Life Sciences). The conversion rate was then converted to inhibitory rate.
As used herein, “max” refers to the conversion rate of the DMSO no-compound control well, and “min” refers to the conversion rate of the no-enzyme activity control well. A curve was obtained by plotting the inhibitory rate as a function of the compound concentration. The XLFit excel add-in version 4.3.1 software was used to fit the curve and calculate the IC50. Inhibitory rate %=(max−conversion rate)/(max−min)×100.

H1975 = experiment: Inhibition assay on tumor cell proliferation (CellTiter-Glo), H1975; format: cell-based, Human; conditions: Homo sapiens, NCI-H1975; H1975 (L858R and T790M EGFR double mutation), 72 hours, 10% bovine serum

Compound	pIC50 (H358)	pIC50 (EGFR T790M/L858R)	melting point [°C]	pIC50 (H1975)
C=CC(=O)Nc1cc(Nc2ncc(N(C)C)c(-n3c(=O)n(C(C)C)c4ccccc43)n2)c(OC)cc1N(C)CCN(C)C [Compound 135, N-(5-((5-(dimethylamino)-4-(3-isopropyl-2-oxo-2,3-dihydro-1H-benzo[d]imidazol-1-yl)pyrimidin-2-yl)amino)-2-((2-(dimethylamino)ethyl)(methyl)amino)-4-methoxyphenyl)acrylamide]	< 6.00	8.00 to 9.00	114.6 to 116.2	7.30 to 8.00
C=CC(=O)Nc1cc(Nc2ncc(OC)c(-n3c(=O)n(C(C)C)c4ccccc43)n2)c(OC)cc1N(C)CCN(C)C [Compound 133, N-(2-((2-(dimethylamino)ethyl) (methyl)amino)-5-((4-(3-isopropyl-2-oxo-2,3-dihydro-1H-benzo[d]imidazol-1-yl)-5-methoxypyrimidin-2-yl)amino)-4-methoxyphenyl)acrylamide]	< 6.00	8.00 to 9.00	92 to 95	> 8.00
C=CC(=O)Nc1cc(Nc2nccc(-n3c(=O)n(C)c4ccccc43)n2)c(C(C)C)cc1N(C)CCN(C)C [Compound 132, N-(2-((2-(dimethylamino)ethyl)(methyl)amino)-4-isopropyl-5-((4-(3-methyl-2-oxo-2,3-dihydro-1H-benzo[d]imidazol-1-yl)pyrimidin-2-yl)amino)phenyl)acrylamide]	< 6.00	8.00 to 9.00		> 8.00
C=CC(=O)Nc1cc(Nc2nccc(-n3ccc4cc(Cl)ccc43)n2)c(OC)cc1N(C)CCN(C)C [Compound 31, N-(5-((4-(5-chloro-1H-indol-1-yl)pyrimidin-2-yl)amino)-2-((2-(dimethylamino)ethyl)(methyl)amino)-4-methoxyphenyl)acrylamide]	< 6.00	> 9.00	150 to 153	> 8.00
C=CC(=O)Nc1cc(Nc2nccc(-n3c(=O)n(C(C)C)c4ccccc43)n2)c(C)cc1N(C)CCN(C)C [Compound 127, N-(2-((2-(dimethylamino)ethyl)(methyl)amino)-5-((4-(3-isopropyl-2-oxo-2,3-dihydro-1H-benzo[d]imidazol-1-yl)pyrimidin-2-yl)amino)-4-methylphenyl)acrylamide]	< 6.00	> 9.00	179 to 181	> 8.00
C=CC(=O)Nc1cc(Nc2nccc(-n3c(=O)n(C4CC4)c4cc(Cl)ccc43)n2)c(OC)cc1N(C)CCN(C)C [Compound 99, N-(5-((4-(5-chloro-3-cyclopropyl-2-oxo-2,3-dihydro-1H-benzo[d]imidazol-1-yl)pyrimidin-2-yl)amino)-2-((2-(dimethylamino)ethyl)(methyl)amino)-4-methoxyphenyl)acrylamide]	6.00 to 7.00	8.00 to 9.00	124 to 126	> 8.00
C=C(C)C(=O)Nc1cc(Nc2nccc(-n3ccc4ccccc43)n2)c(OC)cc1N(C)CCN(C)C [Compound 68, N-(5-((4-(1H-indol-1-yl)pyrimidin-2-yl)amino)-2-((2-(dimethylamino)ethyl)(methyl)amino)-4-methoxyphenyl)methacryl amide]		7.30 to 8.00	145.7 to 147.1	
C=CC(=O)Nc1cc(Nc2nccc(-n3c(=O)n(C4CC4)c4cc(F)ccc43)n2)c(OC)cc1N(C)CCN(C)C [Compound 98, N-(5-(4-(3-cyclopropyl-5-fluoro-2-oxo-2,3-dihydrobenzo[d]imidazol-1-yl)pyrimidin-2-ylamino)-2-((2-(dimethylamino)ethyl)(methyl)amino)-4-methoxyphenyl)acrylamide]	6.00 to 7.00	> 9.00	181 to 184	> 8.00
C=CC(=O)Nc1cc(Nc2nccc(-n3c(=O)n(C4CC4)c4cc(C#N)ccc43)n2)c(OC)cc1N(C)CCN(C)C [Compound 101, N-(5-((4-(5-cyano-3-cyclopropyl-2-oxo-2,3-dihydro-1H-benzo[d]imidazol-1-yl)pyrimidin-2-yl)amino)-2-((2-(dimethylamino)ethyl)(methyl)amino)-4-methoxyphenyl)acrylamide]	6.00 to 7.00	> 9.00	177 to 179	> 8.00
C=CC(=O)Nc1cc(Nc2nccc(-n3ccc4ccccc43)n2)c(OC)cc1N1CCN(C)CC1 [Compound 84, N-(5-((4-(1H-indol-1-yl)pyrimidin-2-yl)amino)-4-methoxy-2-(4-methylpiperazin-1-yl)phenyl)acrylamide]		7.30 to 8.00	204 to 205	
CCC#CC(=O)Nc1cc(Nc2nccc(-n3ccc4ccccc43)n2)c(OC)cc1N(C)CCN(C)C [Compound 74, N-(5-((4-(1H-indol-1-yl)pyrimidin-2-yl)amino)-2-((2-(dimethylamino)ethyl)(methyl)amino)-4-methoxyphenyl)pent-2-ynamide]		8.00 to 9.00	149.4 to 151.7	
C=CC(=O)Nc1cc(Nc2ncc(NC)c(-n3ccc4ccccc43)n2)c(OC)cc1N(C)CCN(C)C [Compound 11, N-(5-(4-(1H-indol-1-yl)-5-(methylamino)pyrimidin-2-ylamino)-2-((2-(dimethylamino)ethyl)(methyl)amino)-4-methoxyphenyl)acrylamide]		8.00 to 9.00	154 to 156	
C=CC(=O)Nc1cc(Nc2nccc(-n3c(=O)n(C)c4ccccc43)n2)c(OCCOC)cc1N(C)CCN(C)C [Compound 120, N-{2-[(2-dimethylamino-ethyl)-methyl-amino]-4-(2-methoxy-ethoxy)-5-[4-(3-methyl-2-oxo-2,3-dihydro-benzoimidazol-1-yl)-pyrimidin-2-ylamino]-phenyl}-acrylamide]		8.00 to 9.00	71 to 78	
C=CC(=O)Nc1cc(Nc2nccc(-n3c(=O)n(CC4CC4)c4cc(F)ccc43)n2)c(OC)cc1N(C)CCN(C)C [Compound 105, N-(5-(4-(3-(cyclopropylmethyl)-5-fluoro-2-oxo-2,3-dihydro-1H-benzo[d]imidazol-1-yl)pyrimidin-2-ylamino)-2-((2-(dimethylamino)ethyl)(methyl)amino)-4-methoxyphenyl)acrylamide]	6.00 to 7.00	> 9.00		> 8.00
C/C=C/C(=O)Nc1cc(Nc2nccc(-n3ccc4ccccc43)n2)c(OC)cc1N(C)CCN(C)C [Compound 66, (E)-N-(5-((4-(1H-indol-1-yl)pyrimidin-2-yl)amino)-2-((2-(dimethylamino)ethyl)(methyl)amino)-4-methoxyphenyl)but-2-enamide]		7.30 to 8.00	150.2 to 152.8	
COC/C=C/C(=O)Nc1cc(Nc2nccc(-n3ccc4ccccc43)n2)c(OC)cc1N(C)CCN(C)C [Compound 71]		8.00 to 9.00		
C=CC(=O)Nc1cc(Nc2nccc(-n3ccc4ccccc43)n2)c(OC)cc1N(C)CCN1CCOCC1 [Compound 82, N-{5-(4-indol-1-yl-pyrimidin-2-ylamino)-4-methoxy-2-[methyl-(2-morpholin-4-yl-ethyl)-amino]-phenyl}-acryl amide]	< 6.00	8.00 to 9.00		7.00 to 7.30
CC/C=C/C(=O)Nc1cc(Nc2nccc(-n3ccc4ccccc43)n2)c(OC)cc1N(C)CCN(C)C [Compound 67, (E)-N-(5-((4-(1H-indol-1-yl)pyrimidin-2-yl)amino)-2-((2-(dimethylamino)ethyl)(methyl)amino)-4-methoxyphenyl)pent-2-enamide]		7.00 to 7.30	124.3 to 126.2	
C=CC(=O)Nc1cc(Nc2nccc(-n3ccc4ccccc43)n2)c(OC)cc1N(C)CCN1CCCCC1 [Compound 81, N-(5-(4-(1H-indol-1-yl)pyrimidin-2-ylamino)-4-methoxy-2-(methyl(2-(piperidin-1-yl)ethyl)amino)phenyl)acrylamide]		8.00 to 9.00	131 to 136	
